Test results reported in US12252481B2, “Anti-viral compounds” (Aligos Therapeutics, Inc., priority 2021, dated 2025).
Read-outs that look alike come from different tables or passages of the source.

Tests used:
SARS-Cov-2 3CLpro = biological target: T1, SARS-Cov-2 3CLpro (Severe acute respiratory syndrome coronavirus 2, UniProt P0DTD1); test: biochemical; conditions: 3CLpro, 30 mins preincubation, SAMDI-MS; read-out: SARS-Cov-2 IC50 (class)
T1 construct: 3CLpro and HRV3C was added using a Multidrop Combi

HRV3C = biological target: T2, HRV3C (Human rhinovirus 14, UniProt P03303); test: biochemical; design: species or system HRV; conditions: HRV3C, 30 mins preincubation, SAMDI-MS; read-out: HRV IC50 (bound)
T2 construct: 3CLpro and HRV3C was added using a Multidrop Combi
T2 sequence (P03303 1538-1719): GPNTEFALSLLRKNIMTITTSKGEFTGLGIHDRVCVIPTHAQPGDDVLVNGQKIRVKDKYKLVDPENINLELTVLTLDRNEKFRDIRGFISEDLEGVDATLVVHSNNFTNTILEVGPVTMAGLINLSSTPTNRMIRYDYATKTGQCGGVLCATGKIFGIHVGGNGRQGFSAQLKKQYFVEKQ

[1] = test system: human beta-coronavirus OC43; test: OC43 coronavirus antiviral assay in HeLa cells (cytopathic effect, cell-titer-glo); format: cell-based; conditions: Betacoronavirus 1, OC43, HeLa, 144 h, 6 days at 33° C.
[2] = test system: B.1.1.7 lineage SARS-CoV-2; test: microbe, parasite or virus in culture; format: cell-based; conditions: Severe acute respiratory syndrome coronavirus 2, 96 h, read-out: A549-dual_ACE2_TMPRSS2 (EC50)
human cathepsin L = biological target: T3, human cathepsin L (Homo sapiens, UniProt P07711); test: Cathepsin L assay (Z-FR-AMC fluorescence); format: biochemical; conditions: 10 pM human cathepsin L, 30 mins preincubation, Z-FR-AMC 2 μM
T3 construct: purchased R&D Systems
T3 sequence (P07711 114-333): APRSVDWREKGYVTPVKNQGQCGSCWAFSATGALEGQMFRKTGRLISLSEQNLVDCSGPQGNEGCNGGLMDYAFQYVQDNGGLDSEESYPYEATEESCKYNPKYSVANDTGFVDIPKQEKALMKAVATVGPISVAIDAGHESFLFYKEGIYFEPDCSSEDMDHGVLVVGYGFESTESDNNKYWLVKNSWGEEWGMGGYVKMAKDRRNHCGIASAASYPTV
Description: For the cathepsin L assay, 10 pM of human cathepsin L (R&D Systems; Minneapolis, MN) was preincubated for 30 mins with test compounds. Reactions were initiated by the addition of a peptide substrate Z—FR-AMC (final concentration 2 μM, Anaspec; Fremont, CA). Fluorescence was measured at 2-minute intervals for 30 mins using a 355/460 excitation/emission filter module on an Envision plate reader (Perkin Elmer; Waltham, MA). The IC50 values were calculated for each assay by fitting the curves using a four-parameter equation in GraphPad Prism.

| SMILES | IC50 (SARS-Cov-2 3CLpro) | IC50 (HRV3C) | EC50 ([1]; read-out: EC50 (class)) | EC50 [2] | IC50 (human cathepsin L) | EC50 ([1]; read-out: EC50 (bound)) | EC50 ([2]; […], numeric bounds given instead of class symbols) |
| --- | --- | --- | --- | --- | --- | --- | --- |
| CC(C)(C)[C@H](NC(=O)C1(F)CC1)C(=O)N1C[C@@H]2[C@@H]3CC[C@@H](C3)[C@@H]2[C@H]1C(=O)N[C@H](C#N)C[C@@H]1CCNC1=O [Compound 64, (1S,2S,3S,6R,7R)—N-[(1S)-1-cyano-2-[(3S)-2-oxopyrrolidin-3-yl]ethyl]-4-[(2S)-2-[(1-fluorocyclopropyl)formamido]-3,3-dimethylbutanoyl]-4-azatricyclo[5.2.1.0^{2,6}]decane-3-carboxamide] | < 20 nM | > 10000 nM | < 100 nM | < 100 nM | ≥ 10000 nM |  |  |
| CC(C)(C)[C@H](NC(=O)C1(F)CCC1)C(=O)N1C[C@H]2[C@@H]([C@H]1C(=O)N[C@H](C#N)C[C@@H]1CCNC1=O)[C@H]1C=C[C@@H]2C1 [Compound 65, (1S,3aR,4S,7R,7aS)-N-((S)-1-cyano-2-((S)-2-oxopyrrolidin-3-yl)ethyl)-2-((S)-2-(1-fluorocyclobutane-1-carboxamido)-3,3-dimethylbutanoyl)-2,3,3a,4,7,7a-hexahydro-1H-4,7-methanoisoindole-1-carboxamide] | < 20 nM | > 10000 nM | < 100 nM | < 100 nM | ≥ 10000 nM |  |  |
| CC(C)(C)[C@H](NC(=O)C12CC(C1)C2)C(=O)N1C[C@H]2[C@@H]([C@H]1C(=O)N[C@H](C#N)C[C@@H]1CCNC1=O)[C@H]1C=C[C@@H]2C1 [Compound 66, (1S,3aR,4S,7R,7aS)-2-((S)-2-(bicyclo[1.1.1]pentane-1-carboxamido)-3,3-dimethylbutanoyl)-N-((S)-1-cyano-2-((S)-2-oxopyrrolidin-3-yl)ethyl)-2,3,3a,4,7,7a-hexahydro-1H-4,7-methanoisoindole-1-carboxamide] | < 20 nM | > 10000 nM | 100 to 1000 nM | 100 to 1000 nM | ≥ 10000 nM |  |  |
| CC(C)(C)[C@H](NC(=O)C(F)(Cl)Cl)C(=O)N1C[C@@H]2[C@@H]3CC[C@@H](C3)[C@@H]2[C@H]1C(=O)N[C@H](C#N)C[C@@H]1CCNC1=O [Compound 67, (1S,2S,3S,6R,7R)—N-[(1S)-1-cyano-2-[(3S)-2-oxopyrrolidin-3-yl]ethyl]-4-[(2S)-2-(2,2-dichloro-2-fluoroacetamido)-3,3-dimethylbutanoyl]-4-azatricyclo[5.2.1.0^{2,6}]decane-3-carboxamide] | < 20 nM | > 10000 nM | < 100 nM | < 100 nM | ≥ 10000 nM |  |  |
| C=CC1([C@H](NC(=O)C(F)(F)F)C(=O)N2C[C@H]3[C@@H]([C@H]2C(=O)N[C@H](C#N)C[C@@H]2CCNC2=O)[C@H]2C=C[C@@H]3C2)CCC1 [Compound 68, (1S,3aR,4S,7R,7aS)-N-((S)-1-cyano-2-((S)-2-oxopyrrolidin-3-yl)ethyl)-2-((S)-2-(2,2,2-trifluoroacetamido)-2-(1-vinylcyclobutyl)acetyl)-2,3,3a,4,7,7a-hexahydro-1H-4,7-methanoisoindole-1-carboxamide] | < 20 nM | > 10000 nM | < 100 nM | < 100 nM | ≥ 10000 nM |  |  |
| CC(C)(C)[C@H](NC(=O)C(F)(F)F)C(=O)N1C[C@H]2[C@H]3CC[C@H](CC3)[C@H]2[C@@H]1C(=O)N[C@H](C#N)C[C@@H]1CCNC1=O [Compound 71a] | 2000 to 20000 nM | > 10000 nM |  |  | ≥ 10000 nM | > 10000 nM | > 10000 nM |
| CC(C)(C)[C@H](NC(=O)C(F)F)C(=O)N1C[C@H]2[C@@H]([C@H]1C(=O)N[C@H](C#N)C[C@@H]1CCNC1=O)[C@H]1C=C[C@@H]2C1 [Compound 72, (1S,3aR,4S,7R,7aS)-N-((S)-1-cyano-2-((S)-2-oxopyrrolidin-3-yl)ethyl)-2-((S)-2-(2,2-difluoroacetamido)-3,3-dimethylbutanoyl)-2,3,3a,4,7,7a-hexahydro-1H-4,7-methanoisoindole-1-carboxamide] | < 20 nM | > 10000 nM | < 100 nM | < 100 nM | ≥ 10000 nM |  |  |
| CC(F)(F)C(=O)N[C@H](C(=O)N1C[C@H]2[C@@H]([C@H]1C(=O)N[C@H](C#N)C[C@@H]1CCNC1=O)[C@H]1C=C[C@@H]2C1)C(C)(C)C [Compound 73] | < 20 nM | > 10000 nM | < 100 nM | < 100 nM | ≥ 10000 nM |  |  |
| CC(C)(F)C(=O)N[C@H](C(=O)N1C[C@H]2[C@@H]([C@H]1C(=O)N[C@H](C#N)C[C@@H]1CCNC1=O)[C@H]1C=C[C@@H]2C1)C(C)(C)C [Compound 74] | < 20 nM | > 10000 nM | < 100 nM | < 100 nM | ≥ 10000 nM |  |  |
| CC(C)(C)[C@H](NC(=O)C(C)(C)C(F)(F)F)C(=O)N1C[C@H]2[C@@H]([C@H]1C(=O)N[C@H](C#N)C[C@@H]1CCNC1=O)[C@H]1C=C[C@@H]2C1 [Compound 75] | < 20 nM | > 10000 nM | 100 to 1000 nM | < 100 nM | ≥ 10000 nM |  |  |
| CC(C)(C)[C@H](NC(=O)C(F)(F)C(F)(F)F)C(=O)N1C[C@H]2[C@@H]([C@H]1C(=O)N[C@H](C#N)C[C@@H]1CCNC1=O)[C@H]1C=C[C@@H]2C1 [Compound 76, (1S,3aR,4S,7R,7aS)-N-((S)-1-cyano-2-((S)-2-oxopyrrolidin-3-yl)ethyl)-2-((S)-3,3-dimethyl-2-(2,2,3,3,3-pentafluoropropanamido)butanoyl)-2,3,3a,4,7,7a-hexahydro-1H-4,7-methanoisoindole-1-carboxamide] | < 20 nM | > 10000 nM | < 100 nM | < 100 nM | ≥ 10000 nM |  |  |
| COC(C)(C)C(=O)N[C@H](C(=O)N1C[C@H]2[C@@H]([C@H]1C(=O)N[C@H](C#N)C[C@@H]1CCNC1=O)[C@H]1C=C[C@@H]2C1)C(C)(C)C [Compound 77] | 20 to 200 nM | > 10000 nM | 1000 to 10000 nM | 100 to 1000 nM | ≥ 10000 nM |  |  |
| CO[C@](C)(C(=O)N[C@H](C(=O)N1C[C@H]2[C@@H]([C@H]1C(=O)N[C@H](C#N)C[C@@H]1CCNC1=O)[C@H]1C=C[C@@H]2C1)C(C)(C)C)C(F)(F)F [Compound 78] | 20 to 200 nM | > 10000 nM | 1000 to 10000 nM | 100 to 1000 nM | ≥ 10000 nM |  |  |
| COCC(C)(C)[C@H](NC(=O)C(F)(F)C(F)(F)F)C(=O)N1C[C@H]2[C@@H]([C@H]1C(=O)N[C@H](C#N)C[C@@H]1CCNC1=O)[C@H]1C=C[C@@H]2C1 [Compound 100, (1S,3aR,4S,7R,7aS)-N-((S)-1-cyano-2-((S)-2-oxopyrrolidin-3-yl)ethyl)-2-((S)-4-methoxy-3,3-dimethyl-2-(2,2,3,3,3-pentafluoropropanamido)butanoyl)-2,3,3a,4,7,7a-hexahydro-1H-4,7-methanoisoindole-1-carboxamide] | < 20 nM | > 500 nM | < 100 nM | < 100 nM | ≥ 10000 nM |  |  |
| CC(C)(C)[C@H](NC(=O)C(F)(F)F)C(=O)N1C[C@H]2[C@@H]([C@H]1C(=O)N[C@H](C#N)C[C@@H]1Oc3ccncc3NC1=O)[C@H]1C=C[C@@H]2C1 [Compound 109, (1S,3aR,4S,7R,7aS)-N-((S)-1-cyano-2-((S)-3-oxo-3,4-dihydro-2H-pyrido[4,3-b][1,4]oxazin-2-yl)ethyl)-2-((S)-3,3-dimethyl-2-(2,2,2-trifluoroacetamido)butanoyl)-2,3,3a,4,7,7a-hexahydro-1H-4,7-methanoisoindole-1-carboxamide] | < 20 nM | > 500 nM | < 100 nM | < 100 nM | ≥ 10000 nM |  |  |
| CC(C)(C)[C@H](NC(=O)C(F)(F)F)C(=O)N1C[C@H]2[C@@H]([C@H]1C(=O)N[C@H](C#N)C[C@@H]1OCCNC1=O)[C@H]1C=C[C@@H]2C1 [Compound 114, (1S,3aR,4S,7R,7aS)-N-((S)-1-cyano-2-((S)-3-oxomorpholin-2-yl)ethyl)-2-((S)-3,3-dimethyl-2-(2,2,2-trifluoroacetamido)butanoyl)-2,3,3a,4,7,7a-hexahydro-1H-4,7-methanoisoindole-1-carboxamide] | < 20 nM | > 500 nM | < 100 nM | < 100 nM | ≥ 10000 nM |  |  |
| CC(C)(C)[C@H](NC(=O)C(F)(F)Cl)C(=O)N1C[C@H]2[C@@H]([C@H]1C(=O)N[C@H](C#N)C[C@@H]1CCNC1=O)[C@H]1C=C[C@@H]2C1(F)F [Compound 128, (1R,2R,3S,6S,7S)-4-[(2S)-2-(2-chloro-2,2-difluoroacetamido)-3,3-dimethylbutanoyl]-N-[(1S)-1-cyano-2-[(3S)-2-oxopyrrolidin-3-yl]ethyl]-10,10-difluoro-4-azatricyclo[5.2.1.0^{2,6}]dec-8-ene-3-carboxamide] | < 20 nM | > 500 nM | < 100 nM | < 100 nM | ≥ 10000 nM |  |  |
